Source: patent publication US20050277161A1, “Phosphopeptide antigens associated with MHC molecules” (priority 2004, published 2005)
Non-standard residues stand in square brackets, D forms with d. No end group written: not given here. pS = N[C@@H](COP(=O)(O)O)C(=O)O

Test system: COV413.AAD.A4 ovarian carcinoma, DM331.AAD.A4 and SLM2.AAD.A1 melanomas, MCF7.AAD.A2 and MDAMB231.AAD breast carcinomas, and JY EBV-BLCL
Test: Recognition of naturally processed phosphopeptides on cancer cells by phosphopeptide-specific CTL (murine IFNγ ELISA)
Format: cell-based
Conditions: for recognition of the phosphopeptide on cancer cell lines by phosphopeptide-specific CTL (murine IFNγ in supernatant): murine CTL lines 50,000/well incubated 24 hours with 25,000 cancer cells/well, ovarian carcinoma, melanoma and breast carcinoma lines; for recognition of the phosphopeptide on the control cell line by phosphopeptide-specific CTL (murine IFNγ in supernatant): murine CTL lines 50,000/well incubated 24 hours with 25,000 cells/well, control JY EBV-BLCL
Experimental: FIG. 1, comprising FIGS. 1A and 1B, is a graphic illustration of the recognition of naturally processed and presented phosphorylated peptides on cancer cells by the phosphopeptide-specific CTL. Phosphopeptide-specific CTL were incubated with the following cancer cell lines or EBV-transformed B lymphoblastoid cell lines (BLCL): COV413.AAD.A4 ovarian carcinoma, DM331 .AAD.A4 and SLM2.AAD.A1 melanomas, MCF7.AAD.A2 and MDAMB231.AAD breast carcinomas, and JY EBV-BLCL. Supernatants were harvested and evaluated for the presence of murine IFNγ (produced by murine CTL lines). […] The ordinate indicates murine IFNγ in pg/ml. The abscissa indicates each cell line.
CTL specific for two of the antigen peptides were generated by long term culture with the peptides. Two CTL lines specific for the antigen peptide GLLGpSPVRA, lines 6850 and 6960, SEQ ID NO: 13, and two CTL lines specific for the antigen peptide RVApSPTSGV, SEQ ID NO: 14, lines 5183 and 63 were used to detect these two antigen peptides on cancer cells. The phosphopeptide-specific CTL (50,000 CTL/well) were incubated 24 hours with the following cancer cell lines or EBV-transformed B lymphoblastoid cell lines (BLCL) (25,000 cells/well): COV413.AAD.A4 ovarian carcinoma, DM331.AAD.A4 and SLM2.AAD.A1 melanomas, MCF7.AAD.A2 and MDAMB231.AAD breast carcinomas, and JY EBV-BLCL. Supernatants were harvested 24 hours later and evaluated for the presence of murine IFNγ (produced by murine CTL lines) by ELISA (eBioscience Ready-Set-go murine IFNγ ELISA kit).

| Substance | recognition of the phosphopeptide on cancer cell lines by phosphopeptide-specific CTL (murine IFNγ in supernatant) | recognition of the phosphopeptide on the control cell line by phosphopeptide-specific CTL (murine IFNγ in supernatant) |
| --- | --- | --- |
| GLLGpSPVRA (GLLG[pS]PVRA; listed as Homo sapiens) [phosphopeptide from CDC25b:p63; HLA-A2.1] | recognize the phosphopeptide on all the cancer cell lines | not the control cell line |
| RVApSPTSGV (RVA[pS]PTSGV; listed as Homo sapiens) [phosphopeptide from Insulin receptor substrate-2; HLA-A2.1] | recognize the phosphopeptide on all the cancer cell lines | not the control cell line |
